The results in this text go back to patent publication US9428455B2, “Process for annealing amorphous atorvastatin” (Pfizer Inc., priority 2005, dated 2016).

The series is classed as physicochemical. On the procedure:
The amorphous atorvastatin calcium was loaded into 20 ml glass vials (approximately 1 g per vial), and heated at 100±5° C. for 1, 6, and 18 hours in an oven. After heating, the powder was transferred from the vials to 15 ml amber screw-cap bottles, and set-up on stability at 50° C./20% RH. In addition, unannealed amorphous atorvastatin calcium, which was loaded in 15 ml amber screw-cap bottles, was placed on stability as a control.
The annealed amorphous atorvastatin calcium was analyzed for impurities and atorvastatin degradation products using HPLC, by evaluating the ratio of peak integration compared to the total integrated peak areas. […] The material was analyzed by HPLC (Zorbax SB C8 column, 25.0 cm×4.6 mm, HPLC: Hewlett Packard 1100 series, 20 μl injection volume, flow of 1.5 mL/min). […]
Stability data obtained for three annealed samples and the control sample are graphically illustrated in FIGS. 1 to 4. […] In order to express stabilization by annealing in a more quantitative term, relative degradation rate constants, krel, were determined from the data presented in FIGS. 1 to 4. The krel were calculated using Eq. 1: krel=(k/k0)*100% Eq. 1 where k is the zero order rate constant for annealed samples, and k0 is the zero order rate constant for the control sample; k and k0 were determined from the data presented in FIGS. 1 to 4.

Molecules are shown by their SMILES. Structures can show the parent of a compound that is named as a salt.

As to `CC(C)c1c(C(=O)Nc2ccccc2)c(-c2ccccc2)c(-c2ccc(F)cc2)n1CC[C@@H](O)C[C@@H](O)CC(=O)O` (relative stereo) [amorphous atorvastatin calcium, [R—(R*,R*)]-2-(4-fluorophenyl)-β,δ-dihydroxy-5-(1-methylethyl)-3-phenyl-4-[(phenylamino)carbonyl]-1H-pyrrole-1-heptanoic acid calcium salt (2:1) trihydrate], the “Relative degradation rate for total degradation products, less than in the control” value was determined as 34%.
